These results are taken from US12252481B2, “Anti-viral compounds” (Aligos Therapeutics, Inc., priority 2021, dated 2025).

Assay [1] addresses T1, HRV3C (Human rhinovirus 14, UniProt P03303).
T1 construct: 3CLpro and HRV3C was added using a Multidrop Combi
Description: biochemical. As to conditions: HRV3C, 30 mins preincubation, SAMDI-MS; read-out: HRV IC50 (bound). Also on record: species or system HRV.

Assay [2] deals with B.1.1.7 lineage SARS-CoV-2. The assay is described as follows: microbe, parasite or virus in culture. The class given is cell-based. Particulars: Severe acute respiratory syndrome coronavirus 2, 96 h, read-out: A549-dual_ACE2_TMPRSS2 (EC50).
The subject of assay [3] is human beta-coronavirus OC43. The assay is described as follows: OC43 coronavirus antiviral assay in HeLa cells (cytopathic effect, cell-titer-glo). Type of assay: cell-based. Particulars: Betacoronavirus 1, OC43, HeLa, 144 h, 6 days at 33° C. A general note: Damage to the host cells serves as the signal in cytopathic effect assays.
Assay [4] has as its target T2, human cathepsin L (Homo sapiens, UniProt P07711).
T2 construct: purchased R&D Systems
The assay is described as follows: Cathepsin L assay (Z-FR-AMC fluorescence). Type of assay: biochemical. Particulars: 10 pM human cathepsin L, 30 mins preincubation, Z-FR-AMC 2 μM. Here is the method:
For the cathepsin L assay, 10 pM of human cathepsin L (R&D Systems; Minneapolis, MN) was preincubated for 30 mins with test compounds. Reactions were initiated by the addition of a peptide substrate Z—FR-AMC (final concentration 2 μM, Anaspec; Fremont, CA). Fluorescence was measured at 2-minute intervals for 30 mins using a 355/460 excitation/emission filter module on an Envision plate reader (Perkin Elmer; Waltham, MA). The IC50 values were calculated for each assay by fitting the curves using a four-parameter equation in GraphPad Prism.

For assay [5], the target named is T3, SARS-Cov-2 3CLpro (Severe acute respiratory syndrome coronavirus 2, UniProt P0DTD1).
T3 construct: 3CLpro and HRV3C was added using a Multidrop Combi
The assay is described as follows: biochemical. As to conditions: 3CLpro, 30 mins preincubation, SAMDI-MS.

[6] abbreviates: read-out: SARS-Cov-2 IC50 (class).

Like-named read-outs stand apart in the source and are kept apart here. A value given as a limit tells only on which side of the number the result lay.

T2 sequence (P07711 114-333): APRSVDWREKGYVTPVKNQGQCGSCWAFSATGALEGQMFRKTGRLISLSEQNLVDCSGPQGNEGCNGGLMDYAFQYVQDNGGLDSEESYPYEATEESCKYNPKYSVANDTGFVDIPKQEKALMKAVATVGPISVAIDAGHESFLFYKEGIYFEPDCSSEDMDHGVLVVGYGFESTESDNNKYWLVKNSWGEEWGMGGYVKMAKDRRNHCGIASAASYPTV
T1 sequence (P03303 1538-1719): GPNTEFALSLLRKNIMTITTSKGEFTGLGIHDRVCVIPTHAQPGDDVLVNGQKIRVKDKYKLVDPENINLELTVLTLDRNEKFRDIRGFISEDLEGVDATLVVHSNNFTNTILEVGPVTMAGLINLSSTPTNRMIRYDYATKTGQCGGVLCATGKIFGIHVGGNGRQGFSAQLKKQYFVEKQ

Turning to `CC(C)(C)[C@H](NC(=O)C(F)(F)F)C(=O)N1C[C@@H]2[C@@H]([C@@H]3CC[C@H]2O3)[C@@H]1C(=O)N[C@H](C#N)C[C@@H]1CCNC1=O` (relative stereo) [Compound 58a], the results for the IC50 in assay [1], in assay [4] and in assay [5] (read-out: SARS-Cov-2 IC50 (bound)) were over 10000 nM, at least 10000 nM and over 10000 nM, respectively. The concentration for a half-maximal effect (EC50) was over 10000 nM in assay [2] ([…], numeric bounds given instead of class symbols) and over 10000 nM in assay [3] (read-out: EC50 (bound)).

Turning to `CC(C)(C)[C@H](NC(=O)C(F)(F)F)C(=O)N1C[C@H]2[C@@H]([C@H]1C(=O)N[C@H](C#N)C[C@@H]1CCNC1=O)[C@H]1C=C[C@@H]2C1(F)F` [Example 82, (1S,3aS,4S,7R,7aR)—N-((S)-1-cyano-2-((S)-2-oxopyrrolidin-3-yl)ethyl)-2-((S)-3,3-dimethyl-2-(2,2,2-trifluoroacetamido)butanoyl)-8,8-difluoro-2,3,3a,4,7,7a-hexahydro-1H-4,7-methanoisoindole-1-carboxamide], the IC50 in assay [1] is over 10000 nM; in assay [4] it was at least 10000 nM; in assay [5] (setting [6]) it was under 20 nM. Moreover, the EC50 in assay [2] and in assay [3] (read-out: EC50 (class)) was under 100 nM each time.

In the case of `CC(C)(C)[C@H](NC(=O)C(F)(F)F)C(=O)N1C[C@H]2[C@@H]([C@H]1C(=O)N[C@H](C#N)C[C@@H]1Oc3ccncc3NC1=O)[C@H]1C=C[C@@H]2C1` [Compound 109, (1S,3aR,4S,7R,7aS)-N-((S)-1-cyano-2-((S)-3-oxo-3,4-dihydro-2H-pyrido[4,3-b][1,4]oxazin-2-yl)ethyl)-2-((S)-3,3-dimethyl-2-(2,2,2-trifluoroacetamido)butanoyl)-2,3,3a,4,7,7a-hexahydro-1H-4,7-methanoisoindole-1-carboxamide], the IC50 in assay [1] was over 500 nM; in assay [4], at least 10000 nM; in assay [5] (setting [6]), under 20 nM. Moreover, the EC50 in assay [2] and in assay [3] (read-out: EC50 (class)) was under 100 nM in each case.

For the compound `CC(C)(C)[C@H](NC(=O)C(F)(F)C(F)(F)F)C(=O)N1C[C@H]2[C@@H]([C@H]1C(=O)N[C@H](C#N)C[C@@H]1CCNC1=O)[C@H]1C=C[C@@H]2C1(F)F` [Compound 129, (1R,2R,3S,6S,7S)—N-[(1S)-1-cyano-2-[(3S)-2-oxopyrrolidin-3-yl]ethyl]-4-[(2S)-3,3-dimethyl-2-(2,2,3,3,3-pentafluoropropanamido)butanoyl]-10,10-difluoro-4-azatricyclo[5.2.1.0^{2,6}]dec-8-ene-3-carboxamide], the IC50 in assay [1] was over 500 nM; in assay [4] it was at least 10000 nM; in assay [5] (setting [6]) it was under 20 nM. In addition, the EC50 in assay [2] and in assay [3] (read-out: EC50 (class)) was under 100 nM throughout.

Turning to `CC(C)(C)[C@H](NC(=O)C(F)(F)C(F)(F)F)C(=O)N1C[C@H]2[C@@H]([C@H]1C(=O)N[C@H](C#N)C[C@@H]1CCNC1=O)[C@H]1C=C[C@@H]2C1` [Compound 76, (1S,3aR,4S,7R,7aS)-N-((S)-1-cyano-2-((S)-2-oxopyrrolidin-3-yl)ethyl)-2-((S)-3,3-dimethyl-2-(2,2,3,3,3-pentafluoropropanamido)butanoyl)-2,3,3a,4,7,7a-hexahydro-1H-4,7-methanoisoindole-1-carboxamide], the IC50 in assay [1] is over 10000 nM; in assay [4] it was at least 10000 nM; in assay [5] (setting [6]), under 20 nM. Also, the EC50 in assay [2] and in assay [3] (read-out: EC50 (class)) was under 100 nM throughout.

Consider `CC(C)(C)[C@H](NC(=O)C(F)(F)F)C(=O)N1C[C@H]2[C@@H]([C@H]1C(=O)N[C@H](C#N)C[C@@H]1CCNC1=O)[C@H]1C=C[C@@H]2C1F` (stereo in doubt) [Example 91, (1S,3aS,4S,7R,7aR,8S)—N-((S)-1-cyano-2-((S)-2-oxopyrrolidin-3-yl)ethyl)-2-((S)-3,3-dimethyl-2-(2,2,2-trifluoroacetamido)butanoyl)-8-fluoro-2,3,3a,4,7,7a-hexahydro-1H-4,7-methanoisoindole-1-carboxamide], for which the figures for the IC50 in assay [1], in assay [4] and in assay [5] (setting [6]) were over 500 nM, at least 10000 nM and under 20 nM, respectively. Also, the EC50 in assay [2] and in assay [3] (read-out: EC50 (class)) was under 100 nM throughout.

Consider `CC(F)(F)[C@H](NC(=O)C(F)(F)F)C(=O)N1C[C@H]2[C@@H]([C@H]1C(=O)N[C@H](C#N)C[C@@H]1CCNC1=O)[C@H]1C=C[C@@H]2C1` [Compound 133], for which the IC50 in assay [1] was over 500 nM; in assay [4] it was at least 10000 nM; in assay [5] (setting [6]) it was under 20 nM. The EC50 in assay [2] is 100 to 1000 nM; in assay [3] (read-out: EC50 (class)) it was under 100 nM.

On to `CC(C)(C)[C@H](NC(=O)C(F)(F)F)C(=O)N1C[C@H]2[C@@H]([C@H]1C(=O)N[C@H](C#N)C[C@@H]1CCNC1=O)[C@H]1CC[C@@H]2O1` (relative stereo) [Compound 58b], for which the IC50 was over 10000 nM in assay [1], at least 10000 nM in assay [4] and 200 to 2000 nM in assay [5] (setting [6]). Also, the EC50 in assay [2] and in assay [3] (read-out: EC50 (class)) was 1000 to 10000 nM throughout.

Take `CC(C)(C)[C@H](NC(=O)C1(F)CCC1)C(=O)N1C[C@H]2[C@@H]([C@H]1C(=O)N[C@H](C#N)C[C@@H]1CCNC1=O)[C@H]1C=C[C@@H]2C1` [Compound 65, (1S,3aR,4S,7R,7aS)-N-((S)-1-cyano-2-((S)-2-oxopyrrolidin-3-yl)ethyl)-2-((S)-2-(1-fluorocyclobutane-1-carboxamido)-3,3-dimethylbutanoyl)-2,3,3a,4,7,7a-hexahydro-1H-4,7-methanoisoindole-1-carboxamide]: the IC50 in assay [1] is over 10000 nM; in assay [4] it was at least 10000 nM; in assay [5] (setting [6]), under 20 nM. Also, the EC50 in assay [2] and in assay [3] (read-out: EC50 (class)) was under 100 nM in each case.

For `COC(C)(C)C(=O)N[C@H](C(=O)N1C[C@H]2[C@@H]([C@H]1C(=O)N[C@H](C#N)C[C@@H]1CCNC1=O)[C@H]1C=C[C@@H]2C1)C(C)(C)C` [Compound 77], the values for the IC50 in assay [1], in assay [4] and in assay [5] (setting [6]) were over 10000 nM, at least 10000 nM and 20 to 200 nM, respectively. The EC50 in assay [2] lay in the range of 100 to 1000 nM; in assay [3] (read-out: EC50 (class)), 1000 to 10000 nM.

Consider `CC(C)(C)[C@H](NC(=O)C(F)(F)F)C(=O)N1C[C@@H]2[C@H]3CC[C@H](CC3)[C@@H]2[C@H]1C(=O)N[C@H](C#N)C[C@@H]1CCNC1=O` (mixture of isomers) [Compound 71], for which the results for the IC50 in assay [1], in assay [4] and in assay [5] (setting [6]) were over 10000 nM, at least 10000 nM and under 20 nM, respectively. In addition, the results for the EC50 in assay [2] and in assay [3] (read-out: EC50 (class)) were under 100 nM and 100 to 1000 nM, respectively.

On to `C=CC1([C@H](NC(=O)C(F)(F)F)C(=O)N2C[C@H]3[C@@H]([C@H]2C(=O)N[C@H](C#N)C[C@@H]2CCNC2=O)[C@H]2C=C[C@@H]3C2)CCC1` [Compound 68, (1S,3aR,4S,7R,7aS)-N-((S)-1-cyano-2-((S)-2-oxopyrrolidin-3-yl)ethyl)-2-((S)-2-(2,2,2-trifluoroacetamido)-2-(1-vinylcyclobutyl)acetyl)-2,3,3a,4,7,7a-hexahydro-1H-4,7-methanoisoindole-1-carboxamide], for which the IC50 is over 10000 nM in assay [1], at least 10000 nM in assay [4] and under 20 nM in assay [5] (setting [6]). For the same compound, the EC50 in assay [2] and in assay [3] (read-out: EC50 (class)) was under 100 nM in each case.

The IC50 is the concentration that gives 50% inhibition. As usually defined, the EC50 is the concentration at which the effect is half-maximal.
